# Measured values reported in patent publication US7709482B2, “Polycyclic heteroaryl substituted triazoles useful as Axl inhibitors” (Rigel Pharmaceuticals, Inc., priority 2006, dated 2010).
# Target: T1, Axl (Homo sapiens, UniProt P30530)
# T1 construct: endogenous in cells; host or cells: HeLa cells
# T1 sequence (P30530 26-894): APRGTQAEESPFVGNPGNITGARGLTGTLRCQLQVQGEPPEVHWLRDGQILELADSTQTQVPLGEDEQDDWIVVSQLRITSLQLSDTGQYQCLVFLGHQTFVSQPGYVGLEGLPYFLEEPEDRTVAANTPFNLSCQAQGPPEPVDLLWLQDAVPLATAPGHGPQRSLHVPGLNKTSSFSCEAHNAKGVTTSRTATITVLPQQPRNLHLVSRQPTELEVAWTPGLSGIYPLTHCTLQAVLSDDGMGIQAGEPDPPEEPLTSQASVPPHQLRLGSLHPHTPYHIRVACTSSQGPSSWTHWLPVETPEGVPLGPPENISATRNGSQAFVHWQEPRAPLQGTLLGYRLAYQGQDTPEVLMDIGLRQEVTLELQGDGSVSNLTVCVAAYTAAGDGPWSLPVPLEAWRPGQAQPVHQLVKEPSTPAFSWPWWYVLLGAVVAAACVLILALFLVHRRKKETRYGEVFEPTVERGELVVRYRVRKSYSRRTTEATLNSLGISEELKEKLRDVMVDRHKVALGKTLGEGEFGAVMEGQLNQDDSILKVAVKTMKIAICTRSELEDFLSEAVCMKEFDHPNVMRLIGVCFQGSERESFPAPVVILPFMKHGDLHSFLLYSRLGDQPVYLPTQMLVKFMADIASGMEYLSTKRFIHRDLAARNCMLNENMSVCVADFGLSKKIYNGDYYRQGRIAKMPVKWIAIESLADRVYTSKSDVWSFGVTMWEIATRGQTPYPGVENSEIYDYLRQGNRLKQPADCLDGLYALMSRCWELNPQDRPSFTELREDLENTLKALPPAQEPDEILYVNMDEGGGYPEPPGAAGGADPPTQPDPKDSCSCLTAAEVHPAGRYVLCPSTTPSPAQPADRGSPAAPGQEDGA
# Assay: Phospho-Akt In-Cell Western Assay (inhibition of Axl activity after Axl-antibody cross-linking)
# Assay type: cell-based
# Details: inhibition of Axl activity; Table 1, compounds of formula (Ia); read-out: IC50
# How it was run: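 HeLa cells on poly-L-lysine, starved 24 h in 0.5% FCS DMEM with Axl/Fc 500 ng/mL, pre-treated with compound 1 h at 37 °C, then stimulated 5 min by anti-Axl/anti-mouse antibody cross-linking. Fixed cells probed for phospho-Akt with HRP secondary and chemiluminescent detection.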
row,Structure (SMILES),IC50 [nM]
1,"CN1CC2CN(C3CCN(c4ccc(Nc5nc(N)n(-c6cc7c(nn6)-c6ccccc6CCC7)n5)cc4F)CC3)CC2C1 (stereo not shown) [Compound 134, 1-(6,7-dihydro-5H-benzo[6,7]cyclohepta[1,2-c]pyridazin-3-yl)-N^3-(3-fluoro-4-(4-(5-methyloctahydropyrrolo[3,4-c]pyrrolyl)piperidin-1-yl)phenyl)-1H-1,2,4-triazole-3,5-diamine]",< 1000
2,"Nc1nc(Nc2cnc3c(c2)CN(C2CCCC2)CCC3)nn1-c1cc2c(nn1)-c1ccccc1CCC2 [Compound 139, 1-(6,7-dihydro-5H-benzo[6,7]cyclohepta[1,2-c]pyridazin-3-yl)-N^3-(6-cyclopentyl-6,7,8,9-tetrahydro-5H-pyrido[3,2-c]azepin-3-yl)-1H-1,2,4-triazole-3,5-diamine]",> 20000
3,"Nc1nc(Nc2ccc(/C=C/CN3CCC(N4CCCC4)CC3)nc2)nn1-c1cc2c(nn1)-c1ccccc1CCC2 [Compound 141, 1-(6,7-dihydro-5H-benzo[6,7]cyclohepta[1,2-c]pyridazin-3-yl)-N^3-(6-(3-(4-(pyrrolidin-1-yl)piperidin-1-yl)-(E)-propenyl)pyridin-3-yl)-1H-1,2,4-triazole-3,5-diamine]",1000 to 10000
4,"Nc1nc(Nc2ccc(CCCN3CCCCC3)nc2)nn1-c1cc2c(nn1)-c1ccccc1CCC2 [Compound 142, 1-(6,7-dihydro-5H-benzo[6,7]cyclohepta[1,2-c]pyridazin-3-yl)-N^3-(6-(3-piperidin-1-yl)-propanylpyridin-3-yl)-1H-1,2,4-triazole-3,5-diamine]",< 1000
5,"CN1CCN(C2CCN(c3ccc(Nc4nc(N)n(-c5cc6c(nn5)-c5ccc(Cl)cc5CCC6)n4)cc3F)CC2)CC1 [Compound 144, 1-(6,7-dihydro-9-chloro-5H-benzo[6,7]cyclohepta[1,2-c]pyridazin-3-yl)-N^3-(3-fluoro-4-(4-(N-methylpiperazin-1-yl)piperidin-1-yl)phenyl)-1H-1,2,4-triazole-3,5-diamine]",1000 to 10000
6,"CN(C)C1CCN(C/C=C/c2ccc(Nc3nc(N)n(-c4cc5c(nn4)-c4ccccc4CCC5)n3)cn2)CC1 [Compound 146, 1-(6,7-dihydro-5H-benzo[6,7]cyclohepta[1,2-c]pyridazin-3-yl)-N^3-(6-(3-(4-dimethylaminopiperidin-1-yl)-(E)-propenyl)pyridin-3-yl)-1H-1,2,4-triazole-3,5-diamine]",< 1000
7,"Nc1nc(Nc2cnc(N3CCC(N4CCCC4)CC3)nc2)nn1-c1cc2c(nn1)-c1ccccc1CCC2 [Compound 147, 1-(6,7-dihydro-5H-benzo[6,7]cyclohepta[1,2-c]pyridazin-3-yl)-N^3-(2-(4-pyrrolidin-1-ylpiperidin-1-yl)pyrimidin-5-yl)-1H-1,2,4-triazole-3,5-diamine]",< 1000
8,"Nc1nc(Nc2cnc(N3CCC(CN4CCCCC4)CC3)nc2)nn1-c1cc2c(nn1)-c1ccccc1CCC2 [Compound 148, 1-(6,7-dihydro-5H-benzo[6,7]cyclohepta[1,2-c]pyridazin-3-yl)-N^3-(2-(4-(piperidin-1-ylmethyl)piperidin-1-yl)pyrimidin-5-yl)-1H-1,2,4-triazole-3,5-diamine]",1000 to 10000
9,"Nc1nc(Nc2ccc(C(=O)N3CCC(N4CCCCC4)CC3)nc2)nn1-c1cc2c(nn1)-c1ccccc1CCC2 [Compound 149, 1-(6,7-dihydro-5H-benzo[6,7]cyclohepta[1,2-c]pyridazin-3-yl)-N^3-(6-((4-piperidin-1-ylpiperidin-1-yl)carbonyl)pyridin-3-yl)-1H-1,2,4-triazole-3,5-diamine]",1000 to 10000
10,"Nc1nc(Nc2ccc3c(c2)CCC(N2CCCCC2)CC3)nn1-c1cc2c(nn1)-c1ccccc1CCC2 (stereo not shown) [Compound 150, 1-(6,7-dihydro-5H-benzo[6,7]cyclohepta[1,2-c]pyridazin-3-yl)-N^3-((7-piperidin-1-yl)-6,7,8,9-tetrahydro-5H-benzo[7]annulene-2-yl)-1H-1,2,4-triazole-3,5-diamine]",< 1000

# Now from value to molecule:
row,IC50 [nM],Structure (SMILES)
1,< 1000,"Nc1nc(Nc2ccc(N3CCC(N4CCCC4)C3)c(F)c2)nn1-c1cc2c(nn1)-c1ccccc1CCC2 (stereo not shown) [Compound 132, 1-(6,7-dihydro-5H-benzo[6,7]cyclohepta[1,2-c]pyridazin-3-yl)-N^3-(3-fluoro-(4-(3-pyrrolidin-1-yl)pyrrolidin-1-yl)phenyl)-1H-1,2,4-triazole-3,5-diamine]"
2,< 1000,"CCN(CC)C1CCN(c2ccc(Nc3nc(N)n(-c4cc5c(nn4)-c4ccccc4CCC5)n3)cn2)C1 (stereo not shown) [Compound 133, 1-(6,7-dihydro-5H-benzo[6,7]cyclohepta[1,2-c]pyridazin-3-yl)-N^3-(6-(3-diethylaminopyrrolidin-1-yl)pyridin-3-yl)-1H-1,2,4-triazole-3,5-diamine]"
3,< 1000,"CN1CCN(C2CCN(C/C=C/c3ccc(Nc4nc(N)n(-c5cc6c(nn5)-c5ccccc5CCC6)n4)cn3)CC2)CC1 [Compound 135, 1-(6,7-dihydro-5H-benzo[6,7]cyclohepta[1,2-c]pyridazin-3-yl)-N^3-(6-(3-(4-(N-methylpiperazin-4-yl)piperidin-1-yl)-(E)-propenyl)pyridin-3-yl)-1H-1,2,4-triazole-3,5-diamine]"
4,< 1000,"Cc1cc(Nc2nc(N)n(-c3cc4c(nn3)-c3ccccc3CCC4)n2)cnc1N1CCC(N2CCCC2)CC1 [Compound 136, 1-(6,7-dihydro-5H-benzo[6,7]cyclohepta[1,2-c]pyridazin-3-yl)-N^3-(6-(4-(pyrrolidin-1-yl)piperidin-1-yl)-5-methylpyridin-3-yl)-1H-1,2,4-triazole-3,5-diamine]"
5,< 1000,"Nc1nc(Nc2ccc(C3NCC4CNCC43)c(F)c2)nn1-c1cc2c(nn1)-c1ccccc1CCC2 (stereo not shown) [Compound 137, 1-(6,7-dihydro-5H-benzo[6,7]cyclohepta[1,2-c]pyridazin-3-yl)-N^3-(3-fluoro-4-(octahydropyrrolo[3,4-c]pyrrolyl)phenyl)-1H-1,2,4-triazole-3,5-diamine]"
6,< 1000,"Nc1nc(Nc2ccc(/C=C/CN3CCCCC3)nc2)nn1-c1cc2c(nn1)-c1ccccc1CCC2 [Compound 138, 1-(6,7-dihydro-5H-benzo[6,7]cyclohepta[1,2-c]pyridazin-3-yl)-N^3-(6-(3-piperidin-1-yl-(E)-propenyl)pyridin-3-yl)-1H-1,2,4-triazole-3,5-diamine]"
7,< 1000,"Nc1nc(Nc2ccc(N3CCCN(C4CC5CCC4C5)CC3)nc2)nn1-c1cc2c(nn1)-c1ccccc1CCC2 (stereo not shown) [Compound 140, 1-(6,7-dihydro-5H-benzo[6,7]cyclohepta[1,2-c]pyridazin-3-yl)-N^3-(6-(4-(bicyclo[2.2.1]heptan-2-yl)-1,4-diazepan-1-yl)pyridin-3-yl)-1H-1,2,4-triazole-3,5-diamine]"
8,< 1000,"Nc1nc(Nc2ccc(N3CCC(N4CCCC4)CC3)c(F)c2)nn1-c1cc2c(nn1)-c1ccc(Cl)cc1CCC2 [Compound 143, 1-(6,7-dihydro-9-chloro-5H-benzo[6,7]cyclohepta[1,2-c]pyridazin-3-yl)-N^3-(3-fluoro-4-(4-pyrrolidin-1-ylpiperidin-1-yl)phenyl)-1H-1,2,4-triazole-3,5-diamine]"
9,< 1000,"Nc1nc(Nc2ccc(/C=C/CN3CCC(N4CCCCC4)CC3)nc2)nn1-c1cc2c(nn1)-c1ccccc1CCC2 [Compound 145, 1-(6,7-dihydro-5H-benzo[6,7]cyclohepta[1,2-c]pyridazin-3-yl)-N^3-(6-(3-(4-(piperidin-1-yl)piperidin-1-yl)-(E)-propenyl)pyridin-3-yl)-1H-1,2,4-triazole-3,5-diamine]"
